Activity calls are given as the source filed them. The rule behind the calls is not given here.

One data set deals with Osteoclast. Nature of the data set: Effect on bone-resorbing function of osteoclast derived from M-CSF/RANKL-induced ICR mouse BMDM assessed as change in size of resorption pit area at 5 uM after 2 days by hematoxylin staining-based assay. The class given is functional, cell-based.
Data set [1] relates to BMDM. The experiment in a line: Inhibition of RANKL-induced ERK phosphorylation in ICR mouse BMDM at 5 uM preincubated for 1 hr followed by RANKL stimulation measured after 5 to 30 mins by Western blot method. The format is cell-based. Background: Immunoblotting shows a protein as a band on a membrane.
Data set [2] has as its system BMDM. The experiment in a line: Inhibition of M-CSF/RANKL-induced osteoclast differentiation in ICR mouse BMDM assessed as downregulation of Ctsk mRNA expression at 5 uM by qRT-PCR method. The class given is functional, cell-based. (Quantitative PCR measures a nucleic acid by following its amplification.)
The test system of data set [3] is BMDM. Nature of the data set: Inhibition of M-CSF/RANKL-induced osteoclast differentiation in ICR mouse BMDM assessed as downregulation of Nfatc1 mRNA expression at 5 uM by qRT-PCR method. The format is functional, cell-based.
Data set [4] has as its system BMDM. Nature of the data set: Inhibition of M-CSF/RANKL-induced osteoclast differentiation in ICR mouse BMDM assessed as downregulation of Nfatc1 expression at 5 uM after 3 days by Western blot method. The class given is functional, cell-based.
For data set [5], the target named is RAC-alpha serine/threonine-protein kinase (Mus musculus) (UniProt P31750). The experiment in a line: Inhibition of RANKL-induced AKT phosphorylation in ICR mouse BMDM at 5 uM preincubated for 1 hr followed by RANKL stimulation measured after 30 mins by Western blot method. The format is cell-based.
The test system of data set [6] is BMDM. The experiment in a line: Inhibition of RANKL-mediated decrease in Irf8 mRNA expression in ICR mouse BMDM at 5 uM by qRT-PCR method. The format is functional, cell-based.
Data set [7] concerns BMDM. Nature of the data set: Inhibition of M-CSF/RANKL-induced osteoclast differentiation in ICR mouse BMDM assessed as downregulation of Acp5 mRNA expression at 5 uM by qRT-PCR method. The format is functional, cell-based.
The subject of data set [8] is BMDM. The experiment in a line: Inhibition of M-CSF/RANKL-induced osteoclast differentiation in ICR mouse BMDM at 1 uM after 4 days by TRAP staining method relative to control. The format is functional. Particulars: 96 h.
The test system of data set [9] is BMDM. Nature of the data set: Inhibition of M-CSF/RANKL-induced osteoclast differentiation in ICR mouse BMDM assessed as decrease in number of cells with nuclear Nfatc1 at 5 uM by rhodamine-conjugated phalloidin/DAPI staining-based immunofluorescence method. The format is functional, cell-based.
Data set [10] has as its system BMDM. Nature of the data set: Inhibition of M-CSF/RANKL-induced osteoclast differentiation in ICR mouse BMDM at 5 to 10 uM after 4 days by TRAP staining method. The class given is functional, cell-based.
Data set [11] has as its system BMDM. The experiment in a line: Inhibition of RANKL-mediated decrease in Mafb mRNA expression in ICR mouse BMDM at 5 uM by qRT-PCR method. The format is functional, cell-based.
The test system of data set [12] is BMDM. Nature of the data set: Inhibition of M-CSF/RANKL-induced osteoclast differentiation in ICR mouse BMDM assessed as downregulation of Dcstamp mRNA expression at 5 uM by qRT-PCR method. The class given is functional, cell-based.
Data set [13] relates to BMDM. Nature of the data set: Growth inhibition of ICR mouse BMDM up to 10 uM after 3 days by MTT assay. The class given is cell-based. As to conditions: 72 h. On the technique in general: Formazan colour is commonly taken as a measure of viable cells.
Data set [14] relates to BMDM. Nature of the data set: Inhibition of RANKL-mediated decrease in Bcl6 mRNA expression in ICR mouse BMDM at 5 uM by qRT-PCR method. The format is functional, cell-based.
For data set [15], the target named is MAP kinase p38 (Mus musculus) (UniProt P47811+O08911+Q9WUI1+Q9Z1B7). The experiment in a line: Inhibition of RANKL-induced p38 phosphorylation in ICR mouse BMDM at 5 uM preincubated for 1 hr followed by RANKL stimulation measured after 5 to 30 mins by Western blot method. The format is cell-based.

Sequence of RAC-alpha serine/threonine-protein kinase (Mus musculus) (P31750 whole entry): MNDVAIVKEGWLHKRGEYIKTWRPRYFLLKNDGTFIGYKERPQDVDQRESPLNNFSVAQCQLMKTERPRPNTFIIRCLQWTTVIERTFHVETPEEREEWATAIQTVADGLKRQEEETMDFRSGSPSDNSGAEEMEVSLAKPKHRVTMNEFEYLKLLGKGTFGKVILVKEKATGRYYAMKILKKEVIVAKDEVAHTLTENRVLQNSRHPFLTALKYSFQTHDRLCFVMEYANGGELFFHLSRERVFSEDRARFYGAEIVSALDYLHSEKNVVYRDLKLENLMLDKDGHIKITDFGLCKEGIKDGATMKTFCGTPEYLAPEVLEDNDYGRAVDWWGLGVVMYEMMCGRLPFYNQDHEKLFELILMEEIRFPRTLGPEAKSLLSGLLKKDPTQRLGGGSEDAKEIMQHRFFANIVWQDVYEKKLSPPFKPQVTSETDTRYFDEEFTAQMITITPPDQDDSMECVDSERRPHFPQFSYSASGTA

A word on the inhibition: it is the relative decrease from the control value, in per cent. Turning to `COC(=O)[C@]1(O)C[C@@H](OC(=O)/C=C/c2ccc(O)c(O)c2)[C@H](O)[C@H](OC(=O)/C=C/c2ccc(O)c(O)c2)C1`, the outcome in the data set with Osteoclast was inactive. Besides, the inhibition result (with BMDM [1]; in the data set on BMDM [2]; with BMDM [3]; with BMDM [4]; in [5]; in the data set with BMDM [6]) was “Active” each time. Further, the inhibition result in the data set on BMDM [7], in the data set on BMDM [9], in the data set with BMDM [10], in the data set with BMDM [11], in the data set with BMDM [12] and in the data set with BMDM [14] was “Active” in each case. Moreover, the inhibition entry in [15] is “Active”. In the data set on BMDM [8], this molecule came in with an inhibition at 1 µM of 78%. In the data set with BMDM [13], the “growth inhibition (GI)” value is reported as “Non-Toxic”.

These data come from ChEMBL document CHEMBL4118133, “Inhibitory effects of methyl-3,5-di-O-caffeoyl-epi-quinate on RANKL-induced osteoclast differentiation” (Bioorg Med Chem Lett, 2018).
